# Source: patent US7595345B2, “Vitamin D receptor modulators” (Eli Lilly and Company, priority 2003, dated 2009)
# Key:
# [1] = molecular target: T1, RXR-VDR heterodimer (Gal4-RXR-DEF and VP16-VDR-LBD) (Homo sapiens, UniProt P11473); test: RXR-VDR heterodimerization assay (SaOS-2 cells); format: cell-based; details: luciferase reporter pFR-LUC
# T1 construct: Add the Gal4-RXR-DEF and VP16-VDR-LBD; expressed in transfected cells; host or cells: SaOs-2 cells
# T1 sequence (P11473 127-423 limits assumed): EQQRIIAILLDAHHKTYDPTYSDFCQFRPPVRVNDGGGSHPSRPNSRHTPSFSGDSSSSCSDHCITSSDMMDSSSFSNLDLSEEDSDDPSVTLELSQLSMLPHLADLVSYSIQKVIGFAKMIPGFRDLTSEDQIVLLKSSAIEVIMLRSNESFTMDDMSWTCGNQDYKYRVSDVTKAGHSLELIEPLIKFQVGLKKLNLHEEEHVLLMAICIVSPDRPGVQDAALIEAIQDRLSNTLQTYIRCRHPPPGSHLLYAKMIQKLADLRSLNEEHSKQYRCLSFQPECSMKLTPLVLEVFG
# T1 sequence (P19793 201-462 partner limits assumed): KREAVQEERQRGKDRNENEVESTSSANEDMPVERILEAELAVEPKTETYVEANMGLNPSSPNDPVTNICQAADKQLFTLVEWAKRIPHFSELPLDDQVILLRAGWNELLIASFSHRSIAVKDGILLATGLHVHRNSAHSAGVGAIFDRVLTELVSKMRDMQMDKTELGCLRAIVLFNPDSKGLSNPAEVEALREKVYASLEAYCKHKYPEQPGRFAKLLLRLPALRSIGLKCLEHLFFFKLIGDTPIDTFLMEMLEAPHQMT
# Text: 1. The RXR-VDR Heterodimer Assay:
# This assay provides the VDR activity of a test compound.
# This is an in vitro efficacy assay for psoriasis, abscess and adhesion. Psoriasis involves both keratinocytes and immune cells. IL-10 is a unique cytokine because it is anti-inflammatory and immunosuppressive. This assay tells us whether a VDRM is able to function as an agonist in PBMCs (primary blood mononuclear cells) or not. […] 7. Other Compound Assay Standards An alternative measure of the efficacy of compounds of the invention for treatment of osteoporosis is a numerical ratio calculated as follows: • Dose Threshold needed to induce hypercalcemia • divided by • Dose Threshold needed for bone efficacy An alternative measure of the efficacy of compounds of the invention for treatment of psoriasis is a numerical ratio calculated as follows: • Dose Threshold needed to induce hypercalcemia • divided by • Dose Threshold needed to induce keratinocyte proliferation For the above ratios, Dose Thresholds are determined from dose response curve data. 8. The CaT1 (Calcium Transport Protein 1) Assay The CaT1 Assay is an indicator for the undesirable condition of hypercalcemia. […] Preferred assay results are greater than 1000 nM. Details of the Assay Methods: (1) Materials and Method for RXR-VDR Heterodimerization Assay: Transfection Method:
# Grow SaOs-2 cells in T-152 cm^2 culture flasks in growth media.
# Keep the density at 5-6×10^5 cells/ml
# Passage cells 1:3 twice a week
# Resuspend cells in plating media and transfer into growth media.
# Transfection/Treatment Media:
# D-MEM Low Glucose Without Phenol Red only
# T-152 cm^2 culture flask:
# Use well plate to plate cells
# Use Deep well plate sterile to make up treatment media.
# Luciferase Assay Reagent:
# Use Steady-Glo Luciferase Reagent from Promega (Cat #E2550) Consists of:
# a. E2533 Assay Substrate, lyophilized product and
# Aspirate media from culture flask, rinse cells with HBSS and aspirate.
# Add trypsin and incubate. […]
# Read the plates after drug treatment […]
# Count each well using a Luminescence counter, Top Count NXT by Packard […]
# VDR (pGal4-VDR-LBD) = molecular target: T2, VDR (pGal4-VDR-LBD) (Homo sapiens, UniProt P11473); test: VDR CTF (Caco-2 cell co-transfection assay); format: cell-based; details: Caco-2 cells, Gal4-responsive reporter pFRLuc; surrogate for calcemic activity
# T2 construct: the receptor expression vector pGal4-VDR-LBD (10 ng); expressed in transfected cells; host or cells: Caco-2 cells
# T2 sequence (P11473 127-423 limits assumed): T1 sequence (P11473 127-423 limits assumed)
# Experimental: 2. The Caco-2 Cell Co-Transfection Assay:
# The Caco-2 cell assay is an indicator for the undesirable condition of hypercalcemia. This co-transfection assay is a surrogate assay for in vivo calcemic activity of VDR ligands. […] Preferred assay results are greater than 1000 nM.
# (2) Materials and Method for the Caco-2 Cell Assay:
# Caco-2 cells, grown in phenol red free, DMEM (Invitrogen, Carlsbad, Calif.) containing 10% charcoal-stripped FCS (Hyclone, Logan, Utah), were transfected with Fugene 6 reagent (Roche Diagnostics, Indianapolis, Ind.). Cells (5000/well) were plated 18 h before transfection in a 96 well plate. The Cells were transfected with Gal4-responsive reporter pFRLuc (150 ng, Stratagene, La Jolla Calif.) and the receptor expression vector pGal4-VDR-LBD (10 ng), along with Fugene 6 reagent (0.2 μl/well). The DNA-Fugene complex was formed by incubating the mixture for 30 min at room temperature. The cells were transfected in triplicate for 5 h, and treated with various concentrations of VDR ligands (form 0.01 nM to 10,000 nM concentration range) 18 h post-transfection. The luciferase activity was quantified using Steady-Glo reagent kit (Promega, Madison, Wis.) as per manufacturer's specifications.
# [2] = Mouse hypercalcemia assay; format: in vivo; details: female DBF mice, oral gavage for 6 days, serum ionized calcium 6 hours after last dosing
# Text: 4. The Mouse Hypercalcemia Assay
# (4) Materials and Method for the Mouse Hypercalcemia Assay: […]
# rat osteocalcin promoter = test: OCN (osteocalcin) promoter assay; format: cell-based; details: Rattus norvegicus, 48 h, RG-15 (ROS 17/2.8) cells, 48 hr treatment, luciferase
# Experimental: 3. The OCN (Osteocalcin) Promoter Assay
# The OCN Promoter Assay is an indicator and marker for osteoporosis. Desired assay results are EC50 less than or equal to […]. Preferred assay results are less than […].
# (3) Materials and Method for the OCN Promoter Assay:
# The activation of osteocalcin by VDR ligands was evaluated in a rat osteoblast-like cell line RG-15 (ROS 17/2.8) stably expressing rat osteocalcin promoter fused with luciferase reporter gene. The stable cell lines were established as reported before (Activation of Osteocalcin Transcription involves interaction of protein kinase A- and Protein kinase C-dependent pathways. Boguslawski, G., Hale, L. V., Yu, X.-P., Miles, R. R., Onyia, J. E., Santerre R. F., Chandrasekhar, S. J. Biol. Chem. 275, 999-1006, 2000). Confluent RG-15 cells maintained in DMEM/F-12 medium (3:1) containing 5% FBS, 300 µg/ml G418 and at 37° C. under 5% CO2/95% air atmosphere were trypsinized (0.25% trypsin) and plated into white opaque 96-well cell culture plates (25000 cells/well). After 24 hr, cells (in DMEM/F-12 medium+2% FBS) were treated with various concentrations of compounds, dissolved in DMSO. The final DMSO concentration remained at 0.01% (v/v). After 48 hr treatment, the medium was removed, cells were lysed with 50 µl of lysis buffer (From Luciferase reporter assay system, Roche Diagnostics, Indianapolis, Ind.) and assayed for luciferase activity using the Luciferase Reporter Gene Assay kit from Boehringer Mannheim as per manufacturer's specifications.
structure (smiles),measurement,setting,value
"CCC(CC)(c1ccc(C#CC2(O)CCCC2)c(C)c1)c1ccc(C(=O)NC(C)(C)C(=O)O)c(C)c1 [Ex. 1, 2-(4-{1-Ethyl-1-[4-(1-hydroxy-cyclopentylethynyl)-3-methyl-phenyl]-propyl}-2-methyl-benzoylamino)-2-methyl-propionic acid]",EC50,[1],68.6 nM
same,EC50,VDR (pGal4-VDR-LBD),471 nM
same,Mouse Hypercal,[2],3000 µg/kg/day
same,EC50,rat osteocalcin promoter,0.96 nM
